# According to PMC4041448 (2014):
# Key:
# [1] = tested on: Cy3-(CUG)10 RNA (RNA, repeat) CUGCUGCUGCUGCUGCUGCUGCUGCUGCUG; assay: fluorescence titration (Cy3 emission); conditions: HEPES-buffered saline; 0.5% DMSO, 0.005% Tween-20; one-site fit
# [2] = tested on: U·U RNA hairpin (5'CNG/3'GNC panel) (RNA, mismatch bulge abasic) GGGAGAGGGUUUAAUCUGUACGAAAGUACUGAUUGGAUCCGCAAGG; assay: competition dialysis; conditions: 110 mM KCl, 2 mM MgCl2, 2 mM CaCl2, 8 mM Na phosphate; 1 mM EDTA, pH 7.0, 20–22°C; 1 μM ligand, 1.56 μM RNA; bound ligand concentration
# [3] = tested on: RNA hairpin with six 5'CUG/3'GUC internal loops (RNA, repeat) GGGAGAGGGUUUAAUCUGCUGCUGCUGCUGCUGUACGAAAGUACUGCUGCUGCUGCUGCUGAUUGGAUCCGCAAGG; assay: competition dialysis; conditions: 110 mM KCl, 2 mM MgCl2, 2 mM CaCl2, 8 mM Na phosphate; 1 mM EDTA, pH 7.0, 20–22°C; 1 μM ligand, 1.33 μM RNA; compared with MBNL1 protein
# [4] = tested on: A-G RNA hairpin (5'CNG/3'GNC panel) (RNA, mismatch bulge abasic) GGGAGAGGGUUUAAUCAGUACGAAAGUACGGAUUGGAUCCGCAAGG; assay: competition dialysis; conditions: 110 mM KCl, 2 mM MgCl2, 2 mM CaCl2, 8 mM Na phosphate; 1 mM EDTA, pH 7.0, 20–22°C; 1 μM ligand, 1.56 μM RNA; bound ligand concentration
# [5] = tested on: no loop RNA (RNA, hairpin) GGGAGAGGGUUUAAUCAGUACGAAAGUACUGAUUGGAUCCGCAAGG; assay: competition dialysis; conditions: 110 mM KCl, 2 mM MgCl2, 2 mM CaCl2, 8 mM Na phosphate; 1 mM EDTA, pH 7.0, 20–22°C; 1 μM ligand, 1.56 μM RNA; bound ligand concentration
KD [1] [nM],binding [2],binding [3],Bound Dilomofungin (Cb) [4] [nM],Bound Dilomofungin (Cb) [5] [nM],Compound
998 ± 180,yes,yes,–,–,COC(=O)c1ccc(O)c2nc3c(C=O)c(O)cc(O)c3nc12
606 ± 300,yes,yes,77.8 ± 33,228 ± 77,COC(=O)c1ccc(O)c2nc3c(C=O)c(O)c(-c4c(O)c(C=O)c5nc6c(O)ccc(C(=O)OC)c6nc5c4O)c(O)c3nc12
